Measured values from patent publication US9914710B2, “Bicyclic arylcarboxylic acid amides and their use as herbicides” (BAYER CROPSCIENCE AKTIENGESELLSCHAFT, priority 2014, dated 2018).

How the values were obtained:
Experiment in all cases: Post-emergence herbicidal action against harmful plants
Format in all cases: in vivo
Details in all cases: one-leaf stage, application rate 80 g/ha, assessed visually after about 3 weeks vs untreated controls
Stellaria media = test system: Stellaria media
Protocol: (§1) Seeds of monocotyledonous and dicotyledonous weed and crop plants are laid out in sandy loam in wood-fiber pots, covered with soil and cultivated in a greenhouse under good growth conditions. 2 to 3 weeks after sowing, the test plants are treated at the one-leaf stage. The compounds of the invention, formulated in the form of wettable powders (WP) or as emulsion concentrates (EC), are then sprayed onto the green parts of the plants in the form of an aqueous suspension or emulsion at a water application rate equating to 600 to 800 I/ha, with addition of 0.2% wetting agent. After the test plants have been left to stand in the greenhouse under optimal growth conditions for about 3 weeks, the action of the preparations is assessed visually in comparison to untreated controls (herbicidal action in percent (%): 100% activity=the plants have died, 0% activity=like control plants). For example, compounds no. 1-18, 1-19, 1-20, 1-21, 1-23, 1-25, 1-26, 1-27, 1-30, 1-32, 1-51, 1-52, 1-53, 1-63, 1-65, 1-69, 1-70, 1-75, 1-76, 1-77, 1-78, 1-79, 1-80, 1-84, 2-18, 2-20 and 4-18 at an application rate of 80 g/ha each have 100% efficacy against Stellaria media, Veronica persica and Viola tricolor.

Veronica persica = test system: Veronica persica
Protocol: as §1

Viola tricolor = test system: Viola tricolor
Protocol: as §1

CCSc1c(Br)c(C(=O)Nc2nnnn2CC)cc2c1CCC2 [1-84]
100%: efficacy (herbicidal action in percent) against Stellaria media (Stellaria media) | efficacy (herbicidal action in percent) against Veronica persica (Veronica persica) | efficacy (herbicidal action in percent) against Viola tricolor (Viola tricolor)

Cn1nnnc1NC(=O)c1cc2c(c(S(C)(=O)=O)c1Br)CCC2 [1-77]
100%: efficacy (herbicidal action in percent) against Stellaria media (Stellaria media) | efficacy (herbicidal action in percent) against Veronica persica (Veronica persica) | efficacy (herbicidal action in percent) against Viola tricolor (Viola tricolor)

CCn1nnnc1NC(=O)c1cc2c(c([S+](C)[O-])c1Cl)CCC2 (racemic) [1-25]
100%: efficacy (herbicidal action in percent) against Stellaria media (Stellaria media) | efficacy (herbicidal action in percent) against Veronica persica (Veronica persica) | efficacy (herbicidal action in percent) against Viola tricolor (Viola tricolor)

CSc1c(Cl)c(C(=O)Nc2nnnn2C)cc2c1C(=O)CC2 [1-30]
100%: efficacy (herbicidal action in percent) against Stellaria media (Stellaria media) | efficacy (herbicidal action in percent) against Veronica persica (Veronica persica) | efficacy (herbicidal action in percent) against Viola tricolor (Viola tricolor)

CSc1c(Cl)c(C(=O)Nc2nnnn2C)cc2c1CCCC2 [1-51, N-(1-methyltetrazol-5-yl)-3-chloro-4-(methylthio)-5,6,7,8-tetrahydronaphthalene-2-carboxamide]
100%: efficacy (herbicidal action in percent) against Stellaria media (Stellaria media) | efficacy (herbicidal action in percent) against Veronica persica (Veronica persica) | efficacy (herbicidal action in percent) against Viola tricolor (Viola tricolor)

CCSc1c(Cl)c(C(=O)Nc2nnnn2CC)cc2c1CCC2 [1-27]
100%: efficacy (herbicidal action in percent) against Stellaria media (Stellaria media) | efficacy (herbicidal action in percent) against Veronica persica (Veronica persica) | efficacy (herbicidal action in percent) against Viola tricolor (Viola tricolor)

Cn1nnnc1NC(=O)c1cc2c(c(S(C)(=O)=O)c1Cl)CCC2 [1-20]
100%: efficacy (herbicidal action in percent) against Stellaria media (Stellaria media) | efficacy (herbicidal action in percent) against Veronica persica (Veronica persica) | efficacy (herbicidal action in percent) against Viola tricolor (Viola tricolor)

Cn1nnnc1NC(=O)c1cc2c(c([S+](C)[O-])c1Cl)CCCC2 (racemic) [1-52]
100%: efficacy (herbicidal action in percent) against Stellaria media (Stellaria media) | efficacy (herbicidal action in percent) against Veronica persica (Veronica persica) | efficacy (herbicidal action in percent) against Viola tricolor (Viola tricolor)

Cn1nnnc1NC(=O)c1cc2c(c([S+](C)[O-])c1Cl)CCO2 (racemic) [1-70]
100%: efficacy (herbicidal action in percent) against Stellaria media (Stellaria media) | efficacy (herbicidal action in percent) against Veronica persica (Veronica persica) | efficacy (herbicidal action in percent) against Viola tricolor (Viola tricolor)

Cn1nnnc1NC(=O)c1cc2c(c(S(C)(=O)=O)c1Cl)OCC2 [1-65]
100%: efficacy (herbicidal action in percent) against Stellaria media (Stellaria media) | efficacy (herbicidal action in percent) against Veronica persica (Veronica persica) | efficacy (herbicidal action in percent) against Viola tricolor (Viola tricolor)

CC[S+]([O-])c1c(Br)c(C(=O)Nc2nnnn2C)cc2c1CCC2 (racemic) [1-79]
100%: efficacy (herbicidal action in percent) against Stellaria media (Stellaria media) | efficacy (herbicidal action in percent) against Veronica persica (Veronica persica) | efficacy (herbicidal action in percent) against Viola tricolor (Viola tricolor)

Cn1nnnc1NC(=O)c1cc2c(c([S+](C)[O-])c1Cl)CCC2 (racemic) [1-19]
100%: efficacy (herbicidal action in percent) against Stellaria media (Stellaria media) | efficacy (herbicidal action in percent) against Veronica persica (Veronica persica) | efficacy (herbicidal action in percent) against Viola tricolor (Viola tricolor)

Cn1nnnc1NC(=O)c1cc2c(c(S(C)(=O)=O)c1Cl)C(=O)CC2 [1-32]
100%: efficacy (herbicidal action in percent) against Stellaria media (Stellaria media) | efficacy (herbicidal action in percent) against Veronica persica (Veronica persica) | efficacy (herbicidal action in percent) against Viola tricolor (Viola tricolor)

CSc1c(Br)c(C(=O)Nc2nnnn2C)cc2c1CCC2 [1-75]
100%: efficacy (herbicidal action in percent) against Stellaria media (Stellaria media) | efficacy (herbicidal action in percent) against Veronica persica (Veronica persica) | efficacy (herbicidal action in percent) against Viola tricolor (Viola tricolor)

CCSc1c(Cl)c(C(=O)Nc2nnnn2C)cc2c1CCC2 [1-21]
100%: efficacy (herbicidal action in percent) against Stellaria media (Stellaria media) | efficacy (herbicidal action in percent) against Veronica persica (Veronica persica) | efficacy (herbicidal action in percent) against Viola tricolor (Viola tricolor)

CSc1c(Cl)c(C(=O)Nc2nnnn2C)cc2c1OCC2 [1-63]
100%: efficacy (herbicidal action in percent) against Stellaria media (Stellaria media) | efficacy (herbicidal action in percent) against Veronica persica (Veronica persica) | efficacy (herbicidal action in percent) against Viola tricolor (Viola tricolor)

CCS(=O)(=O)c1c(Br)c(C(=O)Nc2nnnn2C)cc2c1CCC2 [1-80]
100%: efficacy (herbicidal action in percent) against Stellaria media (Stellaria media) | efficacy (herbicidal action in percent) against Veronica persica (Veronica persica) | efficacy (herbicidal action in percent) against Viola tricolor (Viola tricolor)

CCn1nnnc1NC(=O)c1cc2c(c(S(C)(=O)=O)c1Cl)CCC2 [1-26]
100%: efficacy (herbicidal action in percent) against Stellaria media (Stellaria media) | efficacy (herbicidal action in percent) against Veronica persica (Veronica persica) | efficacy (herbicidal action in percent) against Viola tricolor (Viola tricolor)

CCS(=O)(=O)c1c(Cl)c(C(=O)Nc2nnnn2C)cc2c1CCC2 [1-23]
100%: efficacy (herbicidal action in percent) against Stellaria media (Stellaria media) | efficacy (herbicidal action in percent) against Veronica persica (Veronica persica) | efficacy (herbicidal action in percent) against Viola tricolor (Viola tricolor)

Cn1nnnc1NC(=O)c1cc2c(c(S(C)(=O)=O)c1Cl)CCCC2 [1-53]
100%: efficacy (herbicidal action in percent) against Stellaria media (Stellaria media) | efficacy (herbicidal action in percent) against Veronica persica (Veronica persica) | efficacy (herbicidal action in percent) against Viola tricolor (Viola tricolor)

Cn1nnnc1NC(=O)c1cc2c(c([S+](C)[O-])c1Br)CCC2 (racemic) [1-76]
100%: efficacy (herbicidal action in percent) against Stellaria media (Stellaria media) | efficacy (herbicidal action in percent) against Veronica persica (Veronica persica) | efficacy (herbicidal action in percent) against Viola tricolor (Viola tricolor)

CSc1c(Cl)c(C(=O)Nc2nnnn2C)cc2c1CCO2 [1-69]
100%: efficacy (herbicidal action in percent) against Stellaria media (Stellaria media) | efficacy (herbicidal action in percent) against Veronica persica (Veronica persica) | efficacy (herbicidal action in percent) against Viola tricolor (Viola tricolor)

CSc1c(Cl)c(C(=O)Nc2ncnn2C)cc2c1CCC2 [2-18]
100%: efficacy (herbicidal action in percent) against Stellaria media (Stellaria media) | efficacy (herbicidal action in percent) against Veronica persica (Veronica persica) | efficacy (herbicidal action in percent) against Viola tricolor (Viola tricolor)

CCSc1c(Br)c(C(=O)Nc2nnnn2C)cc2c1CCC2 [1-78]
100%: efficacy (herbicidal action in percent) against Stellaria media (Stellaria media) | efficacy (herbicidal action in percent) against Veronica persica (Veronica persica) | efficacy (herbicidal action in percent) against Viola tricolor (Viola tricolor)

Cn1ncnc1NC(=O)c1cc2c(c(S(C)(=O)=O)c1Cl)CCC2 [2-20]
100%: efficacy (herbicidal action in percent) against Stellaria media (Stellaria media) | efficacy (herbicidal action in percent) against Veronica persica (Veronica persica) | efficacy (herbicidal action in percent) against Viola tricolor (Viola tricolor)

CSc1c(Cl)c(C(=O)Nc2nnc(C)o2)cc2c1CCC2 [4-18]
100%: efficacy (herbicidal action in percent) against Stellaria media (Stellaria media) | efficacy (herbicidal action in percent) against Veronica persica (Veronica persica) | efficacy (herbicidal action in percent) against Viola tricolor (Viola tricolor)

CSc1c(Cl)c(C(=O)Nc2nnnn2C)cc2c1CCC2 [1-18]
100%: efficacy (herbicidal action in percent) against Stellaria media (Stellaria media) | efficacy (herbicidal action in percent) against Veronica persica (Veronica persica) | efficacy (herbicidal action in percent) against Viola tricolor (Viola tricolor)
